The record followed here is BindingDB's records for doi:10.1016/s0960-894x(99)00425-4 (Merck Research Laboratorie, 1999).

Bounds are passed on as bounds.

The target in this assay is Beta-lactamase CcrA (Bacteroides fragilis). Put plainly: Inhibitory activity against CCRA (Bacteroides fragilis) metallo-beta-lactamase.
Regarding `CCC(=O)N[C@H](C)C(=O)S[C@H](Cc1ccc(-c2ccccc2)cc1)C(=O)O` [(R)-3-Biphenyl-4-yl-2-((R)-2-propionylamino-propionylsulfanyl)-propionic acid], the IC50 – broadly, the point on the concentration scale where inhibition reaches its midpoint – is more than 1500 µM.

Consider `CC(=O)N[C@H](C)C(=O)S[C@H](Cc1ccccc1)C(=O)O` [(R)-2-((R)-2-Acetylamino-propionylsulfanyl)-3-phenyl-propionic acid], for which the IC50 is more than 1000 µM.

Compound `CC(=O)S[C@H](Cc1ccc(-c2ccccc2)cc1)C(=O)O` [(R)-2-Acetylsulfanyl-3-biphenyl-4-yl-propionic acid] came in with an IC50 of 750 µM.

`C=CCOC(=O)N[C@H](C)C(=O)S[C@H](Cc1ccc2oc3ccccc3c2c1)C(=O)O` [(R)-2-((R)-2-Allyloxycarbonylamino-propionylsulfanyl)-3-dibenzofuran-2-yl-propionic acid]: the IC50 is more than 1500 µM.

As to `C[C@@H](NC(=O)c1ccccc1)C(=O)S[C@H](Cc1ccc2oc3ccccc3c2c1)C(=O)O` [(R)-2-((R)-2-Benzoylamino-propionylsulfanyl)-3-dibenzofuran-2-yl-propionic acid], half-maximal inhibition (IC50) required 680 µM.

As to `CC(=O)N[C@H](C)C(=O)S[C@H](Cc1ccc(-c2ccccc2)cc1)C(=O)O` [(R)-2-((R)-2-Acetylamino-propionylsulfanyl)-3-biphenyl-4-yl-propionic acid], the IC50 was 1000 µM. The IC50 values of the last two compounds are within 1.5-fold of each other.

With `O=C(O)[C@H](S)Cc1ccc2oc3ccccc3c2c1` [(R)-3-Dibenzofuran-2-yl-2-mercapto-propionic acid], the IC50 turned out to be 9.9 µM.

`C[C@@H](NC(=O)Cc1ccccc1)C(=O)S[C@H](Cc1ccc(-c2ccccc2)cc1)C(=O)O` [(R)-3-Biphenyl-4-yl-2-((R)-2-phenylacetylamino-propionylsulfanyl)-propionic acid]: the IC50 is more than 1500 µM.

Compound `CC(C)C(=O)N[C@H](C)C(=O)S[C@H](Cc1ccc(-c2ccccc2)cc1)C(=O)O` [(R)-3-Biphenyl-4-yl-2-((R)-2-isobutyrylamino-propionylsulfanyl)-propionic acid] showed a concentration for half-maximal inhibition (IC50) of more than 1500 µM.

On to `C[C@@H](NC(=O)c1ccccc1)C(=O)SCC(=O)O` [(R)-2-(2-benzamidopropanoylthio)acetic acid], for which the IC50 was more than 1000 µM.

Take `CC(=O)S[C@H](Cc1ccc2oc3ccccc3c2c1)C(=O)O` [(R)-2-Acetylsulfanyl-3-dibenzofuran-2-yl-propionic acid]: the IC50 is more than 500 µM.

`O=C(S[C@H](Cc1ccccc1)C(=O)O)c1ccccc1` [(R)-2-Benzoylsulfanyl-3-phenyl-propionic acid] gave an IC50 of more than 1000 µM.

`C[C@@H](NC(=O)c1ccccc1)C(=O)S[C@H](Cc1ccc(-c2ccccc2)cc1)C(=O)O` [(R)-2-((R)-2-Benzoylamino-propionylsulfanyl)-3-biphenyl-4-yl-propionic acid] showed an IC50 of 1000 µM.

As to `CC(=O)S[C@H](Cc1ccccc1)C(=O)O` [(R)-2-Acetylsulfanyl-3-phenyl-propionic acid], the IC50 is more than 1000 µM.

Consider `C[C@@H](NC(=O)COc1ccccc1)C(=O)S[C@H](Cc1ccc(-c2ccccc2)cc1)C(=O)O` [(R)-3-Biphenyl-4-yl-2-[(R)-2-(2-phenoxy-acetylamino)-propionylsulfanyl]-propionic acid], for which half-maximal inhibition (IC50) was put at 930 µM.

`O=C(O)[C@H](S)Cc1ccc(-c2ccccc2)cc1` [(R)-3-Biphenyl-4-yl-2-mercapto-propionic acid] returned an IC50 of 750 µM.

`C[C@@H](NC(=O)Cc1cccc2ccccc12)C(=O)S[C@H](Cc1ccc(-c2ccccc2)cc1)C(=O)O` [(R)-3-Biphenyl-4-yl-2-[(R)-2-(2-naphthalen-1-yl-acetylamino)-propionylsulfanyl]-propionic acid] registered an IC50 of more than 1500 µM.

As for `C[C@@H](NC(=O)CCC(=O)O)C(=O)S[C@H](Cc1ccc(-c2ccccc2)cc1)C(=O)O` [N-[(R)-1-((R)-2-Biphenyl-4-yl-1-carboxy-ethylsulfanylcarbonyl)-ethyl]-succinamic acid], the IC50 is more than 1500 µM.
